According to the supplement of paper PMC8960247:
Structures can show the parent of a compound that is named as a salt. ± gives the standard error.

Assays:
[1] = tested on: 621-102 (TSC2-deficient); assay: relative viability vs DMSO; higher = less cytotoxic; conditions: serum: 10% FBS, 72 h
[2] = tested on: 621-103 (TSC2-rescued); assay: as above; conditions: serum: 10% FBS, 72 h
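Note: immortalized renal angiomyolipoma cells stably carrying empty vector or TSC2, dosed in 384-well plates in DMEM, viability normalized to vehicle-treated wells within each plate.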

Row | SMILES | relative viability ([1]; 0.0001 µM) [%] | relative viability ([1]; 0.001 µM) [%] | relative viability ([1]; 0.01 µM) [%] | relative viability ([1]; 0.1 µM) [%] | relative viability ([1]; 1 µM) [%] | relative viability ([1]; 10 µM) [%] | relative viability ([2]; 0.0001 µM) [%] | relative viability ([2]; 0.001 µM) [%] | relative viability ([2]; 0.01 µM) [%] | relative viability ([2]; 0.1 µM) [%] | relative viability ([2]; 1 µM) [%] | relative viability ([2]; 10 µM) [%]
1 | CC(=O)Nc1nc(C)c(-c2ccc(Cl)c(S(=O)(=O)NCCO)c2)s1 [PIK-93] | 94.69 ± 0.6 | 106 ± 2.8 | 115 ± 0.89 | 112 ± 3.2 | 113.97 ± 0.11 | 82.8 ± 0.53 | 102.7 ± 0.19 | 102 ± 1.3 | 98.7 ± 1.2 | 100.8 ± 1 | 102 ± 1.7 | 74.3 ± 1.8
2 | Cc1ccccc1-n1c(Cn2ncc3c(N)ncnc32)nc2cccc(C)c2c1=O [PIK-293] | 75.5 ± 1.2 | 114 ± 4.8 | 108 ± 1.3 | 118.8 ± 0.73 | 111.4 ± 0.27 | 108 ± 5.3 | 99.57 ± 0.92 | 99.6 ± 1.1 | 98.74 ± 0.94 | 98.35 ± 0.28 | 98.9 ± 1.9 | 94.1 ± 1.5
3 | CN(C)C1CCN(C(=O)c2ccc(NC(=O)Nc3ccc(-c4nc(N5CCOCC5)nc(N5CCOCC5)n4)cc3)cc2)CC1 [PKI-587] | 52.3 ± 1.3 | 38.71 ± 0.29 | 29.8 ± 0.13 | 22.16 ± 0.12 | 17.8 ± 0.79 | 13.3 ± 0.47 | 72.6 ± 3.4 | 49.4 ± 3 | 44.8 ± 2.2 | 33.8 ± 1.2 | 26.61 ± 0.072 | 19.91 ± 0.074
4 | CCCS(=O)(=O)Nc1ccc(F)c(C(=O)c2c[nH]c3ncc(Cl)cc23)c1F [PLX-4720] | 108 ± 2.7 | 111 ± 4.3 | 107 ± 4.4 | 99.7 ± 4.8 | 101 ± 3.2 | 101 ± 1.9 | 102 ± 2.3 | 100.7 ± 0.75 | 99.2 ± 1.6 | 99.5 ± 1.8 | 99.18 ± 0.44 | 103.4 ± 0.45
5 | CC(C)n1nc(-c2cc3cc(O)ccc3[nH]2)c2c(N)ncnc21 [PP242] | 93.3 ± 6.1 | 95.7 ± 2.2 | 103 ± 2 | 101.44 ± 0.046 | 46 ± 1.6 | 16.86 ± 0.071 | 107 ± 6.5 | 107.2 ± 0.94 | 103 ± 2.7 | 80.1 ± 1.7 | 38 ± 0.41 | 23.13 ± 0.076
6 | Nc1ncnc2c1c(-c1cnc3[nH]ccc3c1)nn2C1CCCC1 [PP-121] | 102 ± 4.8 | 97.7 ± 2.4 | 89.2 ± 0.2 | 85 ± 1.9 | 56.4 ± 0.66 | 5.4 ± 0.81 | 104.1 ± 0.76 | 103 ± 2.2 | 99.74 ± 0.75 | 86.8 ± 3.6 | 41.5 ± 1.9 | 10.2 ± 0.22
7 | CC(=O)O[C@H]1C(=O)[C@@]2(C)[C@H]([C@H](OC(=O)c3ccccc3)[C@]3(O)C[C@H](OC(=O)[C@H](O)[C@@H](NC(=O)c4ccccc4)c4ccccc4)C(C)=C1C3(C)C)[C@]1(OC(C)=O)CO[C@@H]1C[C@@H]2O [Paclitaxel] | 54.2 ± 1.8 | 46.8 ± 2.3 | 33.66 ± 0.22 | 33.1 ± 0.46 | 29.6 ± 1.3 | 31.1 ± 2.3 | 69 ± 1.5 | 59.3 ± 0.96 | 40.8 ± 0.42 | 34.5 ± 0.39 | 28.7 ± 0.81 | 42.3 ± 0.75
8 | CC(=O)O[C@H]1C[C@@H]2CC[C@@H]3[C@H](CC[C@@]4(C)[C@H]3C[C@H]([N+]3(C)CCCCC3)[C@@H]4OC(C)=O)[C@@]2(C)C[C@@H]1[N+]1(C)CCCCC1 [Pancuronium bromide] | 83.8 ± 6.4 | 95.36 ± 0.26 | 93.6 ± 3.5 | 91.4 ± 3.3 | 84.1 ± 1.2 | 52.5 ± 0.78 | 97.7 ± 0.99 | 104 ± 1.3 | 101 ± 2.5 | 95 ± 3.6 | 93.8 ± 4.2 | 51.35 ± 0.38
9 | Cc1ccc(Nc2nccc(N(C)c3ccc4c(C)n(C)nc4c3)n2)cc1S(N)(=O)=O [Pazopanib Hydrochloride] | 78.9 ± 0.89 | 104 ± 5.5 | 110 ± 5.6 | 114.4 ± 0.52 | 104.7 ± 0.87 | 82.2 ± 1.6 | 92.7 ± 4.2 | 99.2 ± 3.9 | 102 ± 1.2 | 102.1 ± 1 | 100.8 ± 0.29 | 55.9 ± 1.2
10 | CCOc1cc2ncc(C#N)c(Nc3ccc(F)c(Cl)c3)c2cc1NC(=O)/C=C/CN(C)C [Pelitinib] | 104 ± 2.2 | 107.2 ± 0.9 | 121.9 ± 0.77 | 107 ± 4 | 80.44 ± 0.46 | 25.2 ± 3.6 | 102 ± 1.2 | 101 ± 1.5 | 100.5 ± 0.68 | 98.7 ± 3 | 65.38 ± 0.34 | 19.6 ± 1.3
11 | CCC[C@H](N[C@@H](C)C(=O)N1[C@H](C(=O)O)C[C@@H]2CCCC[C@@H]21)C(=O)OCC [Perindopril Erbumine] | 101 ± 0.48 | 106 ± 0.46 | 98.6 ± 1.7 | 104.3 ± 0.76 | 107.29 ± 0.055 | 73.7 ± 4.8 | 103.3 ± 0.76 | 108.5 ± 0.44 | 84.6 ± 1.6 | 111 ± 3.4 | 98.7 ± 11 | 79.52 ± 0.69
12 | N=C(N)NC(=N)NCCc1ccccc1 [Phenformin HCl] | 114.3 ± 0.035 | 113.5 ± 0.44 | 113 ± 1.9 | 112 ± 1.7 | 110 ± 8 | 105.3 ± 0.58 | 101 ± 5.7 | 102 ± 2.7 | 99.8 ± 1.6 | 104 ± 3.9 | 101 ± 5.7 | 101.9 ± 0.52
13 | O=C1N=C(O)NC1(c1ccccc1)c1ccccc1 [Phenytoin sodium] | 121 ± 4.2 | 90.6 ± 8.7 | 94.9 ± 4.7 | 86.6 ± 2.5 | 92 ± 6 | 100.3 ± 0.98 | 105 ± 2.1 | 105.8 ± 0.97 | 100 ± 2.4 | 101 ± 2.9 | 94.54 ± 0.49 | 101.8 ± 0.76
14 | O=C1NC(=O)C(c2ccccc2)(c2ccccc2)N1 [Phenytoin] | 109 ± 0.34 | 119 ± 4.6 | 101 ± 3 | 105 ± 1.9 | 97.4 ± 5 | 99.7 ± 1.3 | 105 ± 3.8 | 106 ± 6.7 | 100.3 ± 0.63 | 106 ± 4.5 | 101 ± 3 | 101 ± 7.8
15 | COc1ccc(-c2nc3cc(C4=NNC(=O)CC4C)ccc3[nH]2)cc1 (stereo not drawn) [Pimobendan (Vetmedin)] | 105.47 ± 0.018 | 106 ± 0.73 | 103 ± 2.5 | 108 ± 3.9 | 101 ± 2.5 | 87.99 ± 0.68 | 104 ± 2.3 | 101.7 ± 0.57 | 102.2 ± 0.15 | 100 ± 3.2 | 99.3 ± 3.6 | 84.13 ± 0.39
16 | CN1C(C(=O)Nc2ccccn2)=C(O)c2ccccc2S1(=O)=O [Piroxicam] | 98.4 ± 3.2 | 105 ± 8.5 | 111.3 ± 0.51 | 109 ± 4.4 | 103 ± 1.4 | 104 ± 9.8 | 110 ± 3 | 125 ± 2.3 | 126 ± 3.5 | 119.6 ± 0.1 | 112 ± 5 | 116.42 ± 0.082
17 | CCCN[C@H]1CCc2nc(N)sc2C1 [Pramipexole dihydrochloride monohydrate] | 91.3 ± 7.3 | 84.5 ± 4.2 | 101 ± 2.4 | 102 ± 1.4 | 91.4 ± 1.3 | 94.4 ± 1.9 | 98.1 ± 4.4 | 95.62 ± 0.72 | 101 ± 2.9 | 101 ± 1.8 | 105 ± 2.4 | 100.5 ± 0.52
18 | CCc1nc(N)nc(N)c1-c1ccc(Cl)cc1 [Pyrimethamine] | 99.7 ± 4.9 | 108.7 ± 0.4 | 95.6 ± 3.3 | 95.7 ± 2.5 | 100 ± 1.8 | 93.14 ± 0.75 | 105 ± 2 | 105.5 ± 0.94 | 104 ± 3.5 | 101 ± 2 | 104.3 ± 0.2 | 102 ± 4.4
19 | O=c1c(O)c(-c2ccc(O)c(O)c2)oc2cc(O)cc(O)c12 [Quercetin (Sophoretin)] | 64.8 ± 5.1 | 65.4 ± 7.3 | 68.4 ± 9.3 | 75 ± 10 | 78.2 ± 10 | 73.3 ± 5 | 87 ± 2 | 79.1 ± 1.4 | 88.6 ± 3.3 | 95.2 ± 6.2 | 89.4 ± 4.9 | 86.8 ± 1.1
